Where two headings read alike, the source gives them in different places.
Key:
Experiment in all cases: SelectScreen Kinase Profiling, single point inhibition and IC50 for off-target kinases
Format in all cases: biochemical
[1] = target: off-target kinases (Homo sapiens, UniProt Q04759); details: PRKCQ (PKC theta); Cmpd1 1000 μM; ATP Km app; ZLYTE
[2] = target: T1, off-target kinases (Homo sapiens, UniProt P15735); details: PHKG2, ATP Km app, ZLYTE
T1 sequence (P15735 1-406): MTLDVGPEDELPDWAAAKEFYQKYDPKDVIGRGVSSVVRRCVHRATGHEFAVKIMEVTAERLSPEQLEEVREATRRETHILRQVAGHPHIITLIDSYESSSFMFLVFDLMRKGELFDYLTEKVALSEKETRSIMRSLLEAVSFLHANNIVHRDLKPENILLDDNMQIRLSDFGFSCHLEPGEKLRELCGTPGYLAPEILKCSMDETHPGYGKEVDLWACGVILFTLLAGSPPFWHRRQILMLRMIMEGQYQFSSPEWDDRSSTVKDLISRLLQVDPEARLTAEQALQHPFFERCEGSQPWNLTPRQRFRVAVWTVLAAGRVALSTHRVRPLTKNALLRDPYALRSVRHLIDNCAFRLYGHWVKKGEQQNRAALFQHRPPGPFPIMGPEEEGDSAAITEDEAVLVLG

[3] = tested on: off-target kinases
[4] = target: off-target kinases (Homo sapiens, UniProt P11309); details: PIM1, ZLYTE, ATP Km app
Chain of off-target kinases (Homo sapiens, UniProt P11309) (P11309 whole entry): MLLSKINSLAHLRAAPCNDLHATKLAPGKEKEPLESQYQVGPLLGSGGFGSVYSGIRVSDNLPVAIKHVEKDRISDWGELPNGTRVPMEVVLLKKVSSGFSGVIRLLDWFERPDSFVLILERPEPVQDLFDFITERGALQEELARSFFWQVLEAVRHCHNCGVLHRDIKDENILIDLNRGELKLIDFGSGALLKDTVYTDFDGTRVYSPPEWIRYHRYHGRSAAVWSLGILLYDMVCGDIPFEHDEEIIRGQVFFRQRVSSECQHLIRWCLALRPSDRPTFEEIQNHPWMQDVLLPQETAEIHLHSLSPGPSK

[5] = target: off-target kinases (Homo sapiens, UniProt P48736); details: PIK3CG (p110 gamma), Adapta, ATP Km app
Chain of off-target kinases (Homo sapiens, UniProt P48736) (P48736 whole entry): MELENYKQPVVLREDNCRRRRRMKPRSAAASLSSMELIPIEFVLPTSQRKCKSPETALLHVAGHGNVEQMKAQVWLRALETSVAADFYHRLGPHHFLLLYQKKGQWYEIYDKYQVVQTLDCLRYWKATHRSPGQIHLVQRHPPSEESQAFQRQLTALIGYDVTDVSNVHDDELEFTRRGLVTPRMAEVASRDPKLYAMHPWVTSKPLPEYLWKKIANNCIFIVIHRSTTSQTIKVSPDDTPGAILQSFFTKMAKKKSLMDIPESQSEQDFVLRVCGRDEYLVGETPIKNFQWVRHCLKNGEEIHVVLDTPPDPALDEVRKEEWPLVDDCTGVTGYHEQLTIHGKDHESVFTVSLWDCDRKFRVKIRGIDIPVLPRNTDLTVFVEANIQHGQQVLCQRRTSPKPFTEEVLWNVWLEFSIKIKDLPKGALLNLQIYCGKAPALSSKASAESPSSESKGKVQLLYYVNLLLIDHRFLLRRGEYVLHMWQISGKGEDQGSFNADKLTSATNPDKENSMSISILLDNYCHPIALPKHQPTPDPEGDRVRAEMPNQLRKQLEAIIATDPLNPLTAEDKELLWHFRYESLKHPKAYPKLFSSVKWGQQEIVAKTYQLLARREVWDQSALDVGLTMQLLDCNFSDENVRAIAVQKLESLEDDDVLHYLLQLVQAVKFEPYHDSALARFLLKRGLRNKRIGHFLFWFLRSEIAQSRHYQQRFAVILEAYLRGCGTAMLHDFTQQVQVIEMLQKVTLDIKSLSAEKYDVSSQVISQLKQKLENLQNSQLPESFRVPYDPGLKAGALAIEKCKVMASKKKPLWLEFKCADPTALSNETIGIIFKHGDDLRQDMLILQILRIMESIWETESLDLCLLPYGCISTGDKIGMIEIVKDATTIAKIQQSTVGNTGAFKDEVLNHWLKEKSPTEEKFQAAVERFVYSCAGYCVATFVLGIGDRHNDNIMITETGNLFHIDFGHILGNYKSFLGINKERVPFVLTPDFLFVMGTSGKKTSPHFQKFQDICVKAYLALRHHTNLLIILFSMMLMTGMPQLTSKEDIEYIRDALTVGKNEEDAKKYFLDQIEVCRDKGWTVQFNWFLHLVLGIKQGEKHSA

[6] = target: T2, off-target kinases (Homo sapiens, UniProt O14965); details: AURKA (Aurora A), ATP Km app, ZLYTE
T2 sequence (O14965 1-403): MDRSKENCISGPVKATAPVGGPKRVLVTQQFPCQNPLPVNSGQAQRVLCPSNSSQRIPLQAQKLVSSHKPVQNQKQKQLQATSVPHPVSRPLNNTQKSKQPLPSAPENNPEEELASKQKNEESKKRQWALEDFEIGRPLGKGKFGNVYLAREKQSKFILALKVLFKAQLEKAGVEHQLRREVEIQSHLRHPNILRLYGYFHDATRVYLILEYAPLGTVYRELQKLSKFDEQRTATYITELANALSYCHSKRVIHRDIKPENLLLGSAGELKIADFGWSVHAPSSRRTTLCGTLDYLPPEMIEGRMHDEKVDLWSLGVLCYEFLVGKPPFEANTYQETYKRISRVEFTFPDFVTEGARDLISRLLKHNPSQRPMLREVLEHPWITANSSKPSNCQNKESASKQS

[7] = target: off-target kinases (Homo sapiens, UniProt Q9H422); details: HIPK3 (YAK1), ZLYTE, ATP Km app
Chain of off-target kinases (Homo sapiens, UniProt Q9H422) (Q9H422 whole entry): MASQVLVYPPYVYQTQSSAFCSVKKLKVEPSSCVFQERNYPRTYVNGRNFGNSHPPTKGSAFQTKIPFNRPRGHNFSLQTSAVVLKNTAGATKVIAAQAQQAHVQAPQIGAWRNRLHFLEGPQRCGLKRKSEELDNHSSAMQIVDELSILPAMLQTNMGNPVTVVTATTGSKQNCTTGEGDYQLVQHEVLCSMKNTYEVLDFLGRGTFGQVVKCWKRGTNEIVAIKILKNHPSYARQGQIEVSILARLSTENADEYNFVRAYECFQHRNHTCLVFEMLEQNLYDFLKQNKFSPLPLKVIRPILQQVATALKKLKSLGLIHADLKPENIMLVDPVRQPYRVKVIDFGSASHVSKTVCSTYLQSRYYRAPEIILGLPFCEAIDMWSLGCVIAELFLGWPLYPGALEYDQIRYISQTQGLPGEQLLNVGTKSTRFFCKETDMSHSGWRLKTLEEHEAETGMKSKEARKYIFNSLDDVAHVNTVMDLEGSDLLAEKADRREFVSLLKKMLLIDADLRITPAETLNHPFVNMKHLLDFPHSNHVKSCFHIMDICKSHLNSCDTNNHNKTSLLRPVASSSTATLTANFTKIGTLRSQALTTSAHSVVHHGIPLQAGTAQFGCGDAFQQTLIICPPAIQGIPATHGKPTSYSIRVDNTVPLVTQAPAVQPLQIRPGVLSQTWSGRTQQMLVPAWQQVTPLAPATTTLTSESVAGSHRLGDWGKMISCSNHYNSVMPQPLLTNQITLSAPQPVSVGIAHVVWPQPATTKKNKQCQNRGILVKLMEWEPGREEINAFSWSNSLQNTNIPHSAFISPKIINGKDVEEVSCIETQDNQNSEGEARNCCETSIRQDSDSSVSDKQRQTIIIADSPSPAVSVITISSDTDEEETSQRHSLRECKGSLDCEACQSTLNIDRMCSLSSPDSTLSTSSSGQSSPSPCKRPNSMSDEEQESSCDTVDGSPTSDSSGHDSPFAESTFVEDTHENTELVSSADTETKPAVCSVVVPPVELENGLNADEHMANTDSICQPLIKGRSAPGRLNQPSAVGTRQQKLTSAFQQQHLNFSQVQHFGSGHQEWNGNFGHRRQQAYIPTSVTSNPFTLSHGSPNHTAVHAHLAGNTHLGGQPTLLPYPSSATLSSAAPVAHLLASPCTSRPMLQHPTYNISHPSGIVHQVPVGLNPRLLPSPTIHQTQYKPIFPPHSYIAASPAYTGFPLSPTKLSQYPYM

[8] = target: off-target kinases (Homo sapiens, UniProt P28482); details: MAPK1 (ERK2), ZLYTE, ATP Km app
Chain of off-target kinases (Homo sapiens, UniProt P28482) (P28482 whole entry): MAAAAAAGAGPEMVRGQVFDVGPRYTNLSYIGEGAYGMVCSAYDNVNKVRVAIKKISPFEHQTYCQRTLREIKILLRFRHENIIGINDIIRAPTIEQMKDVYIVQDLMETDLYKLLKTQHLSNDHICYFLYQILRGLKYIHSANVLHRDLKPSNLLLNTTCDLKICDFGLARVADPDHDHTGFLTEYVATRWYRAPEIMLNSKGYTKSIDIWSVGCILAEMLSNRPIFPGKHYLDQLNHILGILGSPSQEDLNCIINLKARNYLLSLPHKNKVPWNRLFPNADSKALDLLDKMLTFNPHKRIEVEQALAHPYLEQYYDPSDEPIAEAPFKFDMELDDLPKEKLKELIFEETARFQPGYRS

[9] = target: off-target kinases (Homo sapiens, UniProt P22607, K650E); details: FGFR3 K650E (mutant), ZLYTE, ATP Km app
[10] = target: off-target kinases (Homo sapiens, UniProt P51617); details: IRAK1, ATP Km app, Adapta
Chain of off-target kinases (Homo sapiens, UniProt P51617) (P51617 whole entry): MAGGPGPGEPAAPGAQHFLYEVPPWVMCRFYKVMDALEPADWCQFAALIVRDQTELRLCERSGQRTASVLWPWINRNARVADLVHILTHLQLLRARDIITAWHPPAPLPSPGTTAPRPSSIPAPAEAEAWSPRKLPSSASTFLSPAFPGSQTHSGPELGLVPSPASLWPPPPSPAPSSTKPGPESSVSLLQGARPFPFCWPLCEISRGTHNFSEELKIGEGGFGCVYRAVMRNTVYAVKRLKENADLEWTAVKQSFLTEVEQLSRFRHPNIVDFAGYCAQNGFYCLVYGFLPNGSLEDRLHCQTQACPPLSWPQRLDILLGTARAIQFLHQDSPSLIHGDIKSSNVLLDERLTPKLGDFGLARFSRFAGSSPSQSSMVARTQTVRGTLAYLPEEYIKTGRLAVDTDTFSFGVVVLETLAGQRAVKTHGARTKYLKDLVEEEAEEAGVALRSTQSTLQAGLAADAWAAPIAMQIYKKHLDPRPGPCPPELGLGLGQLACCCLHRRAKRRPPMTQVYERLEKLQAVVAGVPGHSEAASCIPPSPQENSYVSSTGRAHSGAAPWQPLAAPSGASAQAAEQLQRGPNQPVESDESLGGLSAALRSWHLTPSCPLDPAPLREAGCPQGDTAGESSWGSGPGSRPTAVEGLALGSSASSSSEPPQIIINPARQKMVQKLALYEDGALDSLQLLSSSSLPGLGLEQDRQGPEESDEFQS

Chain of off-target kinases (Homo sapiens, UniProt Q04759) (Q04759 whole entry): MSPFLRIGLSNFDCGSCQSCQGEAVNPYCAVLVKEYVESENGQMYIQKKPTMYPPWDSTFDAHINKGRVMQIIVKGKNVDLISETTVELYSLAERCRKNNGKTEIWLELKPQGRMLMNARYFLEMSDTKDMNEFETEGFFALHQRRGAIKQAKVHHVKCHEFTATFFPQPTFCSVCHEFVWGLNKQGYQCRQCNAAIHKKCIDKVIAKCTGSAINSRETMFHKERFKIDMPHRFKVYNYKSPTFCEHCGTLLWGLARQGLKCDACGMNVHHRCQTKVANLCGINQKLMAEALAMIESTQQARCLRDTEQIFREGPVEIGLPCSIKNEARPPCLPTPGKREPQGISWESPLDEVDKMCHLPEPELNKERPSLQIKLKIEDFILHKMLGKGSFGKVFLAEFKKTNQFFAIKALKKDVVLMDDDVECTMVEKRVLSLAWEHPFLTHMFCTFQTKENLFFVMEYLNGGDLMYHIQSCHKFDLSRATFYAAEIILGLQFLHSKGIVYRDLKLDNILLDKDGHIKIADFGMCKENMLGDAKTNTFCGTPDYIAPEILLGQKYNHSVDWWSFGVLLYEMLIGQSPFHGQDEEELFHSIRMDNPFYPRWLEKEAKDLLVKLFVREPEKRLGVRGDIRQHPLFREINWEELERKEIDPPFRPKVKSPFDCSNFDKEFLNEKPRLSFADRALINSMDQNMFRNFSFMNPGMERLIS

## N#Cc1cc(-c2ncnc(Nc3ccc(N4CCN(C5COC5)CC4)cc3)n2)ccc1OC1CCOCC1 [Compound 1, 5-(4-((4-(4-(oxetan-3-yl)piperazin-1-yl)phenyl)amino)-1,3,5-triazin-2-yl)-2-((tetrahydro-2H-pyran-4-yl)oxy)benzonitrile]
[1]
  % Inhibition 1: −6%
  % Inhibition 2: −17%
  % Inhibition Avg: −12%
[2]; read-out: % Inhibition 1
  inhibition: 83%
[2]; read-out: % Inhibition 2
  inhibition: 79%
[2]; read-out: % Inhibition Avg
  inhibition: 81%
[3]
  JAK inhibitory activity: lacks JAK inhibitory activity
[4]; read-out: % Inhibition 1
  inhibition: 11%
[4]; read-out: % Inhibition 2
  inhibition: 3%
[4]; read-out: % Inhibition Avg
  inhibition: 7%
[5]; read-out: % Inhibition 1
  inhibition: 11%
[5]; read-out: % Inhibition 2
  inhibition: 8%
[5]; read-out: % Inhibition Avg
  inhibition: 9%
[6]; read-out: % Inhibition 1
  inhibition: 91%
[6]; read-out: % Inhibition 2
  inhibition: 86%
[6]; read-out: % Inhibition Avg
  inhibition: 89%
[7]; read-out: % Inhibition 1
  inhibition: 15%
[7]; read-out: % Inhibition 2
  inhibition: 11%
[7]; read-out: % Inhibition Avg
  inhibition: 13%
[8]; read-out: % Inhibition 1
  inhibition: 6%
[8]; read-out: % Inhibition 2
  inhibition: 6%
[8]; read-out: % Inhibition Avg
  inhibition: 6%
[9]; read-out: % Inhibition 1
  inhibition: 11%
[9]; read-out: % Inhibition 2
  inhibition: 6%
[9]; read-out: % Inhibition Avg
  inhibition: 8%
[10]; read-out: % Inhibition 1
  inhibition: 94%
[10]; read-out: % Inhibition 2
  inhibition: 96%
[10]; read-out: % Inhibition Avg
  inhibition: 95%
